The record followed here is patent US20250288632A1, “Viral Entry Inhibitors Derived From Botanicals” (priority 2022, published 2025).

In data set [1] the test system is wild type SARS-CoV-2 pseudovirion. Kind of data set: microbe, parasite or virus in culture. It is filed as cell-based. The conditions noted are these: Severe acute respiratory syndrome coronavirus 2, read-out: EC50 % Inhibition (μg/mL).
The next data set relates to SARS-CoV2 (Calu3). Kind of data set: microbe, parasite or virus in culture. It is filed as cell-based, SARS-CoV-2. The settings on record: Severe acute respiratory syndrome coronavirus 2, Calu-3, 72 h.
Data set [2] is described as follows: Cytotoxicity assay measuring cell proliferation in PBM cells. It is filed as cell-based. The conditions noted are these: remdesivir. The protocol: Numbers in parentheses indicate percent inhibition at the highest concentration tested. Cytotoxicity assays measuring the cell proliferation in PBM and Vero cells were performed in parallel to the antiviral assays.

Another data set has as its system SARS-CoV2 (Vero). Kind of data set: microbe, parasite or virus in culture. It is filed as cell-based, SARS-CoV-2. The settings on record: Severe acute respiratory syndrome coronavirus 2, Vero, 48 h.
Another data set deals with SARS-CoV2 (Caco2). Nature of the data set: microbe, parasite or virus in culture. The settings on record: Severe acute respiratory syndrome coronavirus 2, Caco-2, 72 h.

Each structure is given as a SMILES string. ≈ marks a conversion by molar mass, not a printed value.

`CCN(CCO)CCCC(C)Nc1ccnc2cc(Cl)ccc12` (centres unmarked) [Hydroxy cholorquine]: the EC50 in data set [1] was found to be 1.14 µg/mL (≈ 3.39 µM).
Consider `CCC(CC)COC(=O)[C@H](C)N[P@](=O)(OC[C@H]1O[C@@](C#N)(c2ccc3c(N)ncnn23)[C@H](O)[C@@H]1O)Oc1ccccc1` [Remdesivir], for which the EC50 was 2 nM with SARS-CoV2 (Calu3) (read-out: Anti-SARS-CoV2 (Calu3) EC50), 600 nM in the data set with SARS-CoV2 (Vero) (read-out: Anti-SARS-CoV2 (Vero) EC50) and 100 nM in the data set on SARS-CoV2 (Caco2) (read-out: Anti-SARS-CoV2 (Caco2) EC50). Further, the EC90 (as a rule, the concentration at which the effect reaches the 90% level) in the data set on SARS-CoV2 (Calu3) (read-out: Anti-SARS-CoV2 (Calu3) EC90) turned out to be 20 nM; with SARS-CoV2 (Vero) (read-out: Anti-SARS-CoV2 (Vero) EC90), 1600 nM; with SARS-CoV2 (Caco2) (read-out: Anti-SARS-CoV2 (Caco2) EC90), 400 nM. The CC50 (usually the concentration at which the toxic effect on the cells reaches its halfway point) in data set [2] was determined as 1200 nM.
